# Laboratory results from ChEMBL document CHEMBL1641373, “Trishomocubane as a scaffold for the development of selective dopamine transporter (DAT) ligands” (Bioorg Med Chem Lett, 2011).
# Target: 5-hydroxytryptamine receptor 7 (Homo sapiens) (UniProt P34969)
# Experiment: Inhibition of 5HT7 receptor at 10 uM
# Details: not given
# 5-hydroxytryptamine receptor 7 (Homo sapiens), sequence (P34969 whole entry): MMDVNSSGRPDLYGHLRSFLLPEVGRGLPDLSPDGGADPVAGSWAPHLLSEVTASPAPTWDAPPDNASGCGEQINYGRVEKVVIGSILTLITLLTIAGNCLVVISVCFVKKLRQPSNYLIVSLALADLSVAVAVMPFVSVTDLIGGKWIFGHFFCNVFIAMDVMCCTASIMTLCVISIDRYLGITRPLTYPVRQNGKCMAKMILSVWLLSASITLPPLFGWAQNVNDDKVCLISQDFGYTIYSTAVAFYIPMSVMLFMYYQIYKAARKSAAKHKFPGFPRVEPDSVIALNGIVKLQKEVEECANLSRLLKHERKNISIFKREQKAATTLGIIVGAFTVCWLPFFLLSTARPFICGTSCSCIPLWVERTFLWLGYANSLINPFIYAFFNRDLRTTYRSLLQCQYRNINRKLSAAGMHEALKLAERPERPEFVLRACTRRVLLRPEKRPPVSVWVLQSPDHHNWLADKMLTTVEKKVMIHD
row,SMILES,inhibition
1,CN(Cc1cccc(F)c1)[C@H]1C2C3CC4C5C3CC2C5C41 (some centres undefined),< 50%
2,CN(CCc1cccc(F)c1)[C@H]1C2C3CC4C5C3CC2C5C41 (some centres undefined),< 50%
3,Fc1cccc(CCN[C@H]2C3C4CC5C6C4CC3C6C52)c1 (some centres undefined),< 50%
4,Fc1cccc(CN[C@H]2C3C4CC5C6C4CC3C6C52)c1 (some centres undefined),< 50%

# Target: T1, D(4) dopamine receptor (Homo sapiens) (UniProt P21917)
# T1 sequence (whole entry): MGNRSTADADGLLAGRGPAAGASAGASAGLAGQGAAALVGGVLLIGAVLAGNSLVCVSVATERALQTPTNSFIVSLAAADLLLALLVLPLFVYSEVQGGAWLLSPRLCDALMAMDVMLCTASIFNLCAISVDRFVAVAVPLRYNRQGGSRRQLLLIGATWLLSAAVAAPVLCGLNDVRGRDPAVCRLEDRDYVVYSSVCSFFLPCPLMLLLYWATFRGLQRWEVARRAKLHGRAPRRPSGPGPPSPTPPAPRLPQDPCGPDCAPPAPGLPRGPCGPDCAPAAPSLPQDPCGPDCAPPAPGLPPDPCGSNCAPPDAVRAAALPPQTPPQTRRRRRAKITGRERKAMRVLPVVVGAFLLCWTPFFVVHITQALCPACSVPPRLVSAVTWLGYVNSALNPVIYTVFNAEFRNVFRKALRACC
# Experiment: Inhibition of dopamine D4 receptor at 10 uM
# Details: not given
row,SMILES,inhibition
1,CN(Cc1cccc(F)c1)[C@H]1C2C3CC4C5C3CC2C5C41 (some centres undefined),< 50%
2,CN(CCc1cccc(F)c1)[C@H]1C2C3CC4C5C3CC2C5C41 (some centres undefined),< 50%
3,Fc1cccc(CCN[C@H]2C3C4CC5C6C4CC3C6C52)c1 (some centres undefined),< 50%
4,Fc1cccc(CN[C@H]2C3C4CC5C6C4CC3C6C52)c1 (some centres undefined),< 50%

# Target: 5-hydroxytryptamine receptor 5A (Homo sapiens) (UniProt P47898)
# Experiment: Inhibition of 5HT5A receptor at 10 uM
# Details: not given
# 5-hydroxytryptamine receptor 5A (Homo sapiens), sequence (P47898 whole entry): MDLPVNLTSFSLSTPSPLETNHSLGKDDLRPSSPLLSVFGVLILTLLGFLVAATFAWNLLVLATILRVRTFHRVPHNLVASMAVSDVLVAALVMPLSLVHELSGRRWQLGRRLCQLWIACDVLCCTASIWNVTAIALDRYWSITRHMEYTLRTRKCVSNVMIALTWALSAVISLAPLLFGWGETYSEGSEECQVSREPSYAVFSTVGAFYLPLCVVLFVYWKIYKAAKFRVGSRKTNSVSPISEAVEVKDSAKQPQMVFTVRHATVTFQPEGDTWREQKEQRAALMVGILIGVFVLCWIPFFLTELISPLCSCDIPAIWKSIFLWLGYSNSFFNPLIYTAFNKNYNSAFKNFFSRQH
row,SMILES,inhibition
1,CN(Cc1cccc(F)c1)[C@H]1C2C3CC4C5C3CC2C5C41 (some centres undefined),< 50%
2,CN(CCc1cccc(F)c1)[C@H]1C2C3CC4C5C3CC2C5C41 (some centres undefined),< 50%
3,Fc1cccc(CCN[C@H]2C3C4CC5C6C4CC3C6C52)c1 (some centres undefined),< 50%
4,Fc1cccc(CN[C@H]2C3C4CC5C6C4CC3C6C52)c1 (some centres undefined),< 50%

# Target: T2, 5-hydroxytryptamine receptor 3A (Homo sapiens) (UniProt P46098)
# T2 sequence (whole entry): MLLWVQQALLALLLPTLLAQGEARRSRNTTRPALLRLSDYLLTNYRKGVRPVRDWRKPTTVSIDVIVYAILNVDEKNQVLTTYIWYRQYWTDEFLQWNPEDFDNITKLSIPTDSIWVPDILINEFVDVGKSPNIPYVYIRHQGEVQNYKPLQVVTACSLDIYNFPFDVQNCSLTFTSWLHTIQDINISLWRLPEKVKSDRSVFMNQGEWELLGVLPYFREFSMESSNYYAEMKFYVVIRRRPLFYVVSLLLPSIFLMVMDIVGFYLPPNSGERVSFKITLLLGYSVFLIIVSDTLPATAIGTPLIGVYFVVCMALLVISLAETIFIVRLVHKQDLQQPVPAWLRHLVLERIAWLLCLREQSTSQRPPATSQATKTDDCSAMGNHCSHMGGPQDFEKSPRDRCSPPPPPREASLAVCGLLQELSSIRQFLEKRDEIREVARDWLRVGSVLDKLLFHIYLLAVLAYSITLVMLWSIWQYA
# Experiment: Inhibition of 5HT3 receptor at 10 uM
# Details: not given
row,SMILES,inhibition
1,CN(Cc1cccc(F)c1)[C@H]1C2C3CC4C5C3CC2C5C41 (some centres undefined),< 50%
2,CN(CCc1cccc(F)c1)[C@H]1C2C3CC4C5C3CC2C5C41 (some centres undefined),< 50%
3,Fc1cccc(CCN[C@H]2C3C4CC5C6C4CC3C6C52)c1 (some centres undefined),< 50%
4,Fc1cccc(CN[C@H]2C3C4CC5C6C4CC3C6C52)c1 (some centres undefined),< 50%

# Target: Histamine H4 receptor (Homo sapiens) (UniProt Q9H3N8)
# Experiment: Inhibition of H4 receptor at 10 uM
# Details: not given
# Histamine H4 receptor (Homo sapiens), sequence (Q9H3N8 whole entry): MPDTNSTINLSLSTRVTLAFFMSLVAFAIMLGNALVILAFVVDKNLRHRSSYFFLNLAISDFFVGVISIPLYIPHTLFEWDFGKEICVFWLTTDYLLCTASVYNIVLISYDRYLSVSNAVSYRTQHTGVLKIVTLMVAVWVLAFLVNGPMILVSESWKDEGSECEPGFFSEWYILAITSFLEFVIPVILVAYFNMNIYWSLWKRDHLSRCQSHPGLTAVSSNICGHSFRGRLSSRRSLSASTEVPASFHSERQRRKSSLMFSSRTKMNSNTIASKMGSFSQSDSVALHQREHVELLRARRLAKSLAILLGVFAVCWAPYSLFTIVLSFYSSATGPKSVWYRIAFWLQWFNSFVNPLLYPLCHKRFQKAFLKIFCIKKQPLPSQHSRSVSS
row,SMILES,inhibition
1,CN(Cc1cccc(F)c1)[C@H]1C2C3CC4C5C3CC2C5C41 (some centres undefined),< 50%
2,CN(CCc1cccc(F)c1)[C@H]1C2C3CC4C5C3CC2C5C41 (some centres undefined),< 50%
3,Fc1cccc(CCN[C@H]2C3C4CC5C6C4CC3C6C52)c1 (some centres undefined),< 50%
4,Fc1cccc(CN[C@H]2C3C4CC5C6C4CC3C6C52)c1 (some centres undefined),< 50%

# Target: Histamine H2 receptor (Homo sapiens, UniProt P25021)
# Experiment: Inhibition of H2 receptor
# Details: not given
# Histamine H2 receptor, sequence (P25021 whole entry): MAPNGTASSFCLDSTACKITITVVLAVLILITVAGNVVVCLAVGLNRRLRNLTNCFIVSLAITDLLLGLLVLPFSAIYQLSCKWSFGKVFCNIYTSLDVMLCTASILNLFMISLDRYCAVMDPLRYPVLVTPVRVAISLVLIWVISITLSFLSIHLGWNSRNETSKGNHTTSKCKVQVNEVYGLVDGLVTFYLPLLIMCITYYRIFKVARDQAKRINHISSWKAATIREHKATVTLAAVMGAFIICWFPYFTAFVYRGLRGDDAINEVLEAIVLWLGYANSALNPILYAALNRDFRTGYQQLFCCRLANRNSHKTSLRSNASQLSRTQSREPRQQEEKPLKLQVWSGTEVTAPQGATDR
row,SMILES,Ki
1,CN(CCc1cccc(F)c1)[C@H]1C2C3CC4C5C3CC2C5C41 (some centres undefined),4.45 µM
2,Fc1cccc(CCN[C@H]2C3C4CC5C6C4CC3C6C52)c1 (some centres undefined),4.42 µM
3,Fc1cccc(CN[C@H]2C3C4CC5C6C4CC3C6C52)c1 (some centres undefined),2.15 µM

# Target: 5-hydroxytryptamine receptor 6 (Homo sapiens, UniProt P50406)
# Experiment: Inhibition of 5HT6 receptor at 10 uM
# Details: not given
row,SMILES,inhibition
1,CN(Cc1cccc(F)c1)[C@H]1C2C3CC4C5C3CC2C5C41 (some centres undefined),< 50%
2,CN(CCc1cccc(F)c1)[C@H]1C2C3CC4C5C3CC2C5C41 (some centres undefined),< 50%
3,Fc1cccc(CN[C@H]2C3C4CC5C6C4CC3C6C52)c1 (some centres undefined),< 50%

# Target: 5-hydroxytryptamine receptor 1B (Homo sapiens) (UniProt P28222)
# Experiment: Inhibition of 5HT1B receptor at 10 uM
# Details: not given
# 5-hydroxytryptamine receptor 1B (Homo sapiens), sequence (P28222 whole entry): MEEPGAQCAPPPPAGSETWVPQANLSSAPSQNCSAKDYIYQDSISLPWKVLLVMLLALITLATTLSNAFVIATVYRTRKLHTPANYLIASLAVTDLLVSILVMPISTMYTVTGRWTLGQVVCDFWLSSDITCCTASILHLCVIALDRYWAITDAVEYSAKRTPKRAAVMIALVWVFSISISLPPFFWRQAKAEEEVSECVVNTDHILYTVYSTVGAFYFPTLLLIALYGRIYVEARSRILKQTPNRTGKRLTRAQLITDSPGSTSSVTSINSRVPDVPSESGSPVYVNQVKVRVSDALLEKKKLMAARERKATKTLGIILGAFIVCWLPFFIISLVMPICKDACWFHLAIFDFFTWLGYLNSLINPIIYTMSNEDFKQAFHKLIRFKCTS
row,SMILES,inhibition
1,CN(Cc1cccc(F)c1)[C@H]1C2C3CC4C5C3CC2C5C41 (some centres undefined),< 50%
2,CN(CCc1cccc(F)c1)[C@H]1C2C3CC4C5C3CC2C5C41 (some centres undefined),< 50%
3,Fc1cccc(CCN[C@H]2C3C4CC5C6C4CC3C6C52)c1 (some centres undefined),< 50%
4,Fc1cccc(CN[C@H]2C3C4CC5C6C4CC3C6C52)c1 (some centres undefined),< 50%

# Target: Sodium-dependent dopamine transporter (Homo sapiens, UniProt Q01959)
# Experiment: Displacement of [3H]WIN-35428 form human DAT expressed in HEK cell membranes
# Set-up: species or system HEK293
# Details: not given
# Sodium-dependent dopamine transporter, sequence (Q01959 whole entry): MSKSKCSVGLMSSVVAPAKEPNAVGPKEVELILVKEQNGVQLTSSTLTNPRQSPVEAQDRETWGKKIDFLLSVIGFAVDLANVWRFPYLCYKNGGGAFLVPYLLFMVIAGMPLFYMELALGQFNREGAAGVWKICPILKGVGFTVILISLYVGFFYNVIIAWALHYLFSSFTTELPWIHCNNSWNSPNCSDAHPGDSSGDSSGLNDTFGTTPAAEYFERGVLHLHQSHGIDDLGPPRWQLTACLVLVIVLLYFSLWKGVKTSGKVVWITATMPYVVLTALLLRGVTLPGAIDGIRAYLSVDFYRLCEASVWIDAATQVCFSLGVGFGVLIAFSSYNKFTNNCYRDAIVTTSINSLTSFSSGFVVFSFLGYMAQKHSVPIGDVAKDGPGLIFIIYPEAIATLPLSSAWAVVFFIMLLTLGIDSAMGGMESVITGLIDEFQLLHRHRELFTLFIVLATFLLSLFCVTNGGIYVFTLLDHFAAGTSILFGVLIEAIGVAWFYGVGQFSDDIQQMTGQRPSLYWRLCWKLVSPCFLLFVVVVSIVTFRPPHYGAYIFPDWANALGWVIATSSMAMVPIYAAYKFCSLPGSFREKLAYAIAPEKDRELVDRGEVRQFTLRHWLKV
row,SMILES,Ki
1,CN(Cc1cccc(F)c1)[C@H]1C2C3CC4C5C3CC2C5C41 (some centres undefined),0.0012 µM
2,CN(CCc1cccc(F)c1)[C@H]1C2C3CC4C5C3CC2C5C41 (some centres undefined),0.101 µM
3,Fc1cccc(CCN[C@H]2C3C4CC5C6C4CC3C6C52)c1 (some centres undefined),1.68 µM
4,Fc1cccc(CN[C@H]2C3C4CC5C6C4CC3C6C52)c1 (some centres undefined),3.44 µM

# Target: Beta-1 adrenergic receptor (Homo sapiens) (UniProt P08588)
# Experiment: Inhibition of beta1 adrenergic receptor at 10 uM
# Details: not given
# Beta-1 adrenergic receptor (Homo sapiens), sequence (P08588 whole entry, looked up): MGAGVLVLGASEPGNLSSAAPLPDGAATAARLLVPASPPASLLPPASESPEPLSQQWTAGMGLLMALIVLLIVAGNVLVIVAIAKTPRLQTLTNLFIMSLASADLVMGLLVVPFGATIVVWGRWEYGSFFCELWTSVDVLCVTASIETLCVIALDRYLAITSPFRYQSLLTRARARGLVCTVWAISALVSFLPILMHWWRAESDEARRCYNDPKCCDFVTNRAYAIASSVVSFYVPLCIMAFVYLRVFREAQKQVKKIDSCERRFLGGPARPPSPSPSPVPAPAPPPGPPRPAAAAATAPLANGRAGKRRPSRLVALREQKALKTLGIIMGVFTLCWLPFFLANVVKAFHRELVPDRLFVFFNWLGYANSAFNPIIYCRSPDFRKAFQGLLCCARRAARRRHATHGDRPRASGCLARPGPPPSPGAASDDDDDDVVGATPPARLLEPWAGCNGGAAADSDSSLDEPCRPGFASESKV
row,SMILES,inhibition
1,CN(Cc1cccc(F)c1)[C@H]1C2C3CC4C5C3CC2C5C41 (some centres undefined),< 50%
2,CN(CCc1cccc(F)c1)[C@H]1C2C3CC4C5C3CC2C5C41 (some centres undefined),< 50%
3,Fc1cccc(CCN[C@H]2C3C4CC5C6C4CC3C6C52)c1 (some centres undefined),< 50%
4,Fc1cccc(CN[C@H]2C3C4CC5C6C4CC3C6C52)c1 (some centres undefined),< 50%

# Target: 5-hydroxytryptamine receptor 1D (Homo sapiens) (UniProt P28221)
# Experiment: Inhibition of 5HT1D receptor at 10 uM
# Details: not given
row,SMILES,inhibition
1,CN(Cc1cccc(F)c1)[C@H]1C2C3CC4C5C3CC2C5C41 (some centres undefined),< 50%
2,CN(CCc1cccc(F)c1)[C@H]1C2C3CC4C5C3CC2C5C41 (some centres undefined),< 50%
3,Fc1cccc(CCN[C@H]2C3C4CC5C6C4CC3C6C52)c1 (some centres undefined),< 50%
4,Fc1cccc(CN[C@H]2C3C4CC5C6C4CC3C6C52)c1 (some centres undefined),< 50%

# Target: Sodium-dependent serotonin transporter (Homo sapiens, UniProt P31645)
# Experiment: Displacement of [3H]citalopram from human SERT expressed in HEK cells
# Type: cell-based, HEK293
# Details: not given
row,SMILES,Ki
1,Fc1cccc(CCN[C@H]2C3C4CC5C6C4CC3C6C52)c1 (some centres undefined),> 10 µM
2,Fc1cccc(CN[C@H]2C3C4CC5C6C4CC3C6C52)c1 (some centres undefined),> 10 µM

# Same assay, conditions: HEK293, concentration not given here
row,SMILES,inhibition
1,CN(Cc1cccc(F)c1)[C@H]1C2C3CC4C5C3CC2C5C41 (some centres undefined),< 50%
2,CN(CCc1cccc(F)c1)[C@H]1C2C3CC4C5C3CC2C5C41 (some centres undefined),< 50%

# Target: Beta-2 adrenergic receptor (Homo sapiens) (UniProt P07550)
# Experiment: Inhibition of beta2 adrenergic receptor at 10 uM
# Details: not given
# Beta-2 adrenergic receptor (Homo sapiens), sequence (P07550 whole entry, looked up): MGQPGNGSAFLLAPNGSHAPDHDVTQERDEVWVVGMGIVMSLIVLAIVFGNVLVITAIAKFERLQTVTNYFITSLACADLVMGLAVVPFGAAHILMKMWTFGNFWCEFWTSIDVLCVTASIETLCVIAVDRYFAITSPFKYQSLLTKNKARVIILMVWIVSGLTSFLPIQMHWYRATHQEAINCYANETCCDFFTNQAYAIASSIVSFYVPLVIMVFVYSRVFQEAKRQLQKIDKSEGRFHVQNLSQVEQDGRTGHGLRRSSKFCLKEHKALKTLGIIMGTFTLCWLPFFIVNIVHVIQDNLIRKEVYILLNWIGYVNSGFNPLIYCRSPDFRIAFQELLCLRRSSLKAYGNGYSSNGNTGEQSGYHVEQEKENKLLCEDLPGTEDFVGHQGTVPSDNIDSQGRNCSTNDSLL
row,SMILES,inhibition
1,CN(Cc1cccc(F)c1)[C@H]1C2C3CC4C5C3CC2C5C41 (some centres undefined),< 50%
2,CN(CCc1cccc(F)c1)[C@H]1C2C3CC4C5C3CC2C5C41 (some centres undefined),< 50%
3,Fc1cccc(CCN[C@H]2C3C4CC5C6C4CC3C6C52)c1 (some centres undefined),< 50%
4,Fc1cccc(CN[C@H]2C3C4CC5C6C4CC3C6C52)c1 (some centres undefined),< 50%

# Target: T3, Muscarinic acetylcholine receptor M1 (Homo sapiens) (UniProt P11229)
# T3 sequence (whole entry): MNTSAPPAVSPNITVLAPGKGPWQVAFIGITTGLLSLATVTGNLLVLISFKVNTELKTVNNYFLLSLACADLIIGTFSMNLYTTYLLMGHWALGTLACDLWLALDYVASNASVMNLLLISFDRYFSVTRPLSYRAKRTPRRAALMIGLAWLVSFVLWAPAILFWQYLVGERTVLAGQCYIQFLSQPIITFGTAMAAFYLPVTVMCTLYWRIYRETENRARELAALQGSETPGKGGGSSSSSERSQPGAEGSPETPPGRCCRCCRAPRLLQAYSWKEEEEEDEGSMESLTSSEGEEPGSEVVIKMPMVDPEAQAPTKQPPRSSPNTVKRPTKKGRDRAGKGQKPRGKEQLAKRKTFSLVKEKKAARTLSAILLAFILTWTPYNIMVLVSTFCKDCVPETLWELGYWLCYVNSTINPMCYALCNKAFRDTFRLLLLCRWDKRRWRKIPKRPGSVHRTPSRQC
# Experiment: Inhibition of muscarinic M1 receptor at 10 uM
# Details: not given
row,SMILES,inhibition
1,CN(Cc1cccc(F)c1)[C@H]1C2C3CC4C5C3CC2C5C41 (some centres undefined),< 50%
2,CN(CCc1cccc(F)c1)[C@H]1C2C3CC4C5C3CC2C5C41 (some centres undefined),< 50%
3,Fc1cccc(CCN[C@H]2C3C4CC5C6C4CC3C6C52)c1 (some centres undefined),< 50%
4,Fc1cccc(CN[C@H]2C3C4CC5C6C4CC3C6C52)c1 (some centres undefined),< 50%

# Target: Beta-3 adrenergic receptor (Homo sapiens) (UniProt P13945)
# Experiment: Inhibition of beta3 adrenergic receptor at 10 uM
# Details: not given
# Beta-3 adrenergic receptor (Homo sapiens), sequence (P13945 whole entry, looked up): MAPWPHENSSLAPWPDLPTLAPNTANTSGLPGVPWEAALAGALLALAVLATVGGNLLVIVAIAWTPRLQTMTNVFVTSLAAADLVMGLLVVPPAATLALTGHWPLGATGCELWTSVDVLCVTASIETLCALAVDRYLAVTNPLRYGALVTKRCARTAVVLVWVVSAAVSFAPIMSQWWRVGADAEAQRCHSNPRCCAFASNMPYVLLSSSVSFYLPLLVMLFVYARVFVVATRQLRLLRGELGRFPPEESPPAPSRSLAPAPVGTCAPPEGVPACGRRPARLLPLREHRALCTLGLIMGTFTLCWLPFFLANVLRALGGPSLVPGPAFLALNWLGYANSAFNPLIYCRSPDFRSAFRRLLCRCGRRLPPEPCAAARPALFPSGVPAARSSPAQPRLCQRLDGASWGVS
row,SMILES,inhibition
1,CN(Cc1cccc(F)c1)[C@H]1C2C3CC4C5C3CC2C5C41 (some centres undefined),< 50%
2,CN(CCc1cccc(F)c1)[C@H]1C2C3CC4C5C3CC2C5C41 (some centres undefined),< 50%
3,Fc1cccc(CCN[C@H]2C3C4CC5C6C4CC3C6C52)c1 (some centres undefined),< 50%
4,Fc1cccc(CN[C@H]2C3C4CC5C6C4CC3C6C52)c1 (some centres undefined),< 50%

# Target: Kappa-type opioid receptor (Homo sapiens) (UniProt P41145)
# Experiment: Inhibition of kappa opioid receptor at 10 uM
# Details: not given
# Kappa-type opioid receptor (Homo sapiens), sequence (P41145 whole entry): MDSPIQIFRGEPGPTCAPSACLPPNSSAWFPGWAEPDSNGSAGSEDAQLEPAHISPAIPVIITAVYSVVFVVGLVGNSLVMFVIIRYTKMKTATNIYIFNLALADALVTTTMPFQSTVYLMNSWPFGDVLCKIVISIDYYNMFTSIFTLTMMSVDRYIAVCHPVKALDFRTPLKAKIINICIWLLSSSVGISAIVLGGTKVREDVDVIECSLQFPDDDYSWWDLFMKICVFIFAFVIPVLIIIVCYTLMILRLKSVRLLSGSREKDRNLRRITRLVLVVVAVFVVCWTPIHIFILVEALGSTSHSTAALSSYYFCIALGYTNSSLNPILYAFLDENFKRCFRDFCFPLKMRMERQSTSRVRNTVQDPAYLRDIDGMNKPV
row,SMILES,inhibition
1,CN(Cc1cccc(F)c1)[C@H]1C2C3CC4C5C3CC2C5C41 (some centres undefined),< 50%
2,CN(CCc1cccc(F)c1)[C@H]1C2C3CC4C5C3CC2C5C41 (some centres undefined),< 50%
3,Fc1cccc(CCN[C@H]2C3C4CC5C6C4CC3C6C52)c1 (some centres undefined),< 50%
4,Fc1cccc(CN[C@H]2C3C4CC5C6C4CC3C6C52)c1 (some centres undefined),< 50%

# Target: Mu-type opioid receptor (Homo sapiens) (UniProt P35372)
# Experiment: Inhibition of mu opioid receptor at 10 uM
# Details: not given
# Mu-type opioid receptor (Homo sapiens), sequence (P35372 whole entry): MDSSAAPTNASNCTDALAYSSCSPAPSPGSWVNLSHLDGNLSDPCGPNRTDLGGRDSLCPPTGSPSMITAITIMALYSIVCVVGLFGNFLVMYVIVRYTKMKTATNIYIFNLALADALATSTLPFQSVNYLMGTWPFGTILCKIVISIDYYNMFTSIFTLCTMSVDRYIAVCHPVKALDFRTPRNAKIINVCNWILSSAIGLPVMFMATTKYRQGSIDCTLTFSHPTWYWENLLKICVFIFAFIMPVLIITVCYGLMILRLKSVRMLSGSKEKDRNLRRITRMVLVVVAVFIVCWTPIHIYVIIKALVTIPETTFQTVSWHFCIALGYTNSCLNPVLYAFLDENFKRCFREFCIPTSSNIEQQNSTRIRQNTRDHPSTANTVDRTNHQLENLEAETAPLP
row,SMILES,inhibition
1,CN(Cc1cccc(F)c1)[C@H]1C2C3CC4C5C3CC2C5C41 (some centres undefined),< 50%
2,CN(CCc1cccc(F)c1)[C@H]1C2C3CC4C5C3CC2C5C41 (some centres undefined),< 50%
3,Fc1cccc(CCN[C@H]2C3C4CC5C6C4CC3C6C52)c1 (some centres undefined),< 50%
4,Fc1cccc(CN[C@H]2C3C4CC5C6C4CC3C6C52)c1 (some centres undefined),< 50%

# Target: T4, Muscarinic acetylcholine receptor M4 (Homo sapiens) (UniProt P08173)
# T4 sequence (whole entry): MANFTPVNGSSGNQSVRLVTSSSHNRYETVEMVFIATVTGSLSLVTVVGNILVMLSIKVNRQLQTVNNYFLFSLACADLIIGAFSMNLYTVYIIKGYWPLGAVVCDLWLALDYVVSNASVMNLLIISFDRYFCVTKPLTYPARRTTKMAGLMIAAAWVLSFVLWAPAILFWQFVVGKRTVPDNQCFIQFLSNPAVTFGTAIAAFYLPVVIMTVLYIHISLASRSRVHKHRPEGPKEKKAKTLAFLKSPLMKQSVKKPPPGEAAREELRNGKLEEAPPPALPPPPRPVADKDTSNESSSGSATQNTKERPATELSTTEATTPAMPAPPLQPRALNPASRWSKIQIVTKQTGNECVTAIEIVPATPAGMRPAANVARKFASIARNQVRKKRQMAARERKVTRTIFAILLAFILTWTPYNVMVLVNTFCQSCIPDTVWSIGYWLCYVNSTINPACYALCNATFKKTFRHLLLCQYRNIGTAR
# Experiment: Inhibition of muscarinic M4 receptor at 10 uM
# Details: not given
row,SMILES,inhibition
1,CN(Cc1cccc(F)c1)[C@H]1C2C3CC4C5C3CC2C5C41 (some centres undefined),< 50%
2,CN(CCc1cccc(F)c1)[C@H]1C2C3CC4C5C3CC2C5C41 (some centres undefined),< 50%
3,Fc1cccc(CN[C@H]2C3C4CC5C6C4CC3C6C52)c1 (some centres undefined),< 50%
